# Where two headings read alike, the source gives them in different places.
# Experiments:
# [1] = tested on: DG-75 Burkitt’s lymphoma cell line; conditions: read-out: IC50 DG-75; previous work; cited from earlier work
# HG-3 CLL cell line = assay: alamarBlue cell viability assay; conditions: 24 h
# [2] = tested on: MDA-MB-231 human breast cancer cells; assay: alamarBlue cell viability assay; format: cell-based; conditions: eight concentrations 0.001–50 μM
# [3] = tested on: MCF-7 human breast cancer cells; assay: alamarBlue cell viability assay; conditions: MCF7, read-out: MCF-7 IC50
# [4] = tested on: MUTU-I Burkitt’s lymphoma cell line; conditions: read-out: IC50 MUTU-I; previous work; cited from earlier work
# [5] = tested on: MUTU-I Burkitt’s lymphoma cell line; assay: alamarBlue cell viability assay; conditions: MUTU-I
# PGA-1 CLL cells = assay: Annexin V/PI apoptotic assay (FACS); format: cell-based; conditions: 48 h
# Description: (§1) The pro-apoptotic effects of the selected nitrovinylanthracene compounds 19a, 19g, 19i, 19l and 19m after 48 h were next determined using FITC (fluorescein isothiocyanate), Annexin V/PI (propidium iodide) staining and FACS (fluorescence-activated cell sorting) analysis to characterize the mode of cellular death induced. […] The CLL cells PGA1 and HG3 (1 × 10^6 cells/mL) were treated at 37 °C with either vehicle (1% (v/v) DMSO) or the nitrostyrene compounds 19a (10 μM, 5 μM and 1 μM) and 19g, 19i, 19l and 19m (10 μM and 1 μM) for 48 h. The cells were then harvested by centrifugation at 400× g in a temperature-controlled Sorvall centrifuge and rinsed with 0.5 mL of Ca^2+ Annexin-V-binding buffer (0.1 M HEPES, pH 7.4; 0.14 M NaCl; 25 mM CaCl2). The samples were resuspended in 50 µL FITC Annexin V (diluted 1:33 in Ca^2+ Annexin V-binding buffer), incubated on ice for 10 min (protected from light), washed with Annexin-V-binding buffer and re-suspended in 500 µL of propidium iodide (PI) solution (0.5 µg/mL). The samples were analysed within 1 h using a BD Accuri C6 flow cytometer counting 10,000 cells and analysed using the FlowJo software (FlowJo LLC, Ashland, OR, USA) package.
# HG-3 CLL cells = assay: Annexin V/PI apoptotic assay (FACS); format: cell-based; conditions: 48 h
# Description: as §1
# PGA-1 CLL cell line = assay: alamarBlue cell viability assay; conditions: CLL cell, 24 h
# [6] = tested on: DG-75 Burkitt’s lymphoma cell line; assay: alamarBlue cell viability assay; conditions: Homo sapiens
compound,measurement,setting,value
"O=[N+]([O-])/C=C/c1c2ccccc2cc2ccccc12 [Compound 19a, (E)-9-(2-nitrovinyl)anthracene]",IC50,[1],1500 nM
same,viability at 10 µM,"HG-3 CLL cell line; CLL cell, read-out: % Viability HG-3, 10 µM, 24 h",8%
same,IC50,"HG-3 CLL cell line; CLL cell, read-out: HG-3 IC50, 24 h",2400 nM
same,IC50,HG-3 CLL cell line; read-out: HG-3 IC50,2430 nM
same,IC50,[2],3820 nM
same,IC50,[3],1850 nM
same,IC50,[4],3000 nM
same,viability at 1 µM,"[5]; 24 h, read-out: % Viable Cells Remaining MUTU-1, 1 µM, 24 h",82.5%
same,viability at 10 µM,"[5]; 24 h, read-out: % Viable Cells Remaining MUTU-1, 10 µM, 24 h",5.91%
same,IC50,[5]; read-out: IC50 MUTU-I,2570 nM
same,total apoptosis,"PGA-1 CLL cells; PGA-1, 1 μM",40%
same,total apoptosis,"PGA-1 CLL cells; PGA-1, 5 μM",67%
same,total apoptosis,"PGA-1 CLL cells; PGA-1, 10 μM",94%
same,total apoptosis,"HG-3 CLL cells; HG-3, 1 μM",21%
same,total apoptosis,"HG-3 CLL cells; HG-3, 5 μM",69%
same,total apoptosis,"HG-3 CLL cells; HG-3, 10 μM",93%
same,viability at 10 µM,"PGA-1 CLL cell line; read-out: % Viability PGA-1, 10 µM, 24 h",5.1%
same,IC50,"PGA-1 CLL cell line; read-out: PGA-1 IC50, 24 h",3100 nM
same,viability at 1 µM,"[6]; DG-75, 48 h, read-out: % Viable Cells Remaining DG-75, 1 µM, 48 h",94.6%
same,viability at 10 µM,"[6]; DG-75, 48 h, read-out: % Viable Cells Remaining DG-75, 10 µM, 48 h",14%
same,IC50,"[6]; DG-75, read-out: IC50 DG-75",2080 nM
